In patent US20240165123A1, “USE OF A COMPOUND CONTAINING A TRICYCLIC HETEROARYL GROUP” (CSPC Zhongqi Pharmaceutical Technology (Shijiazhuang) Co., …, priority 2021, published 2024):

Assays:
[1] = Toxicity test of oral gavage administration in Beagle dogs, 28 consecutive days; type: in vivo; details: for AUC: NOAEL 3 mg/kg/time BID, 28-day test
Description: (§1) According to the general toxicology study in accordance with the NMPA “Good Laboratory Practice for Non-clinical Laboratory Studies” and FDA GLP specification (21CFR Part 58), and in line with the requirements of International Conference on Harmonization of Technical Requirements for Registration of Pharmaceuticals for Human Use (ICH) and the NMPA relevant guidelines, the toxicology study on Compound (I) was carried out to provide safety data support for the use of Compound (I) in clinical patients. The administration mode and the experimental results were as follows: […]

in vivo = assay: in vivo; set-up: species or system SD rats; details: SD, rat, po
Description: as §1

[2] = Toxicity test of oral gavage administration in SD rats, 28 consecutive days; type: in vivo; details: for AUC: NOAEL 10 mg/kg/time BID, 28-day test; for Safety window, exposure method: NOAEL 28-day test
Description: as §1

JAK2 = JAK2 (Homo sapiens, UniProt O60674); assay: Kinase activity inhibition test (Mobility Shift Assay); type: biochemical; details: 6.5 μM ATP
Description: (§2) • 1. kinases: SYK, JAK1, JAK2, JAK3 and TYK2 • 2. test method
(§3) Protein kinase activity was determined by Mobility Shift Assay. Compound (I) was dissolved in DMSO and prepared into concentration gradients in 100% DMSO. By the dilution with the kinase buffer, 5 μL of Compound (I) (10% DMSO) was added to a 384-well plate at 5 folds of the final reaction concentration. 10 μL of 2.5-fold enzyme solution was added and the incubation was performed at room temperature for 10 min, followed by the addition of 10 μL of 2.5-fold substrate solution. The incubation was performed at 28° C. for 60 min and […] of stop solution was added to the 384-well reaction plate to terminate the reaction (100 mM HEPES, pH 7.5, 0.015% Brij-35, 0.2% Coating Reagent #3, 50 mM EDTA). The conversion data was copied from the Caliper EZ Reader, and converted into the inhibition data, % inhibition=(max-conversion)/(max-min)×100%, wherein, “min” is the conversion for the control sample well where the reaction was performed without adding the enzyme; and “max” is the conversion for the control well where DMSO was added. The curve was drawn with the compound concentration and the inhibition rate as the horizontal and vertical is coordinates, and the IC50 value was calculated by fitting with XLFit excel add-in version 5.4.0.8. Fitting equation:
(§4) Y=Bottom+(Top-Bottom)/(1+(IC50/X)^HillSlope).

JAK1 = JAK1 (Homo sapiens, UniProt P23458); assay: as above; type: biochemical; details: 66 μM ATP
Description: as §2, §3, §4

TYK2 = TYK2 (Homo sapiens, UniProt P29597); assay: as above; type: biochemical; details: 16 μM ATP
Description: as §2, §3, §4

JAK3 = target: T1, JAK3 (Homo sapiens, UniProt P52333); assay: as above; type: biochemical; details: 4.3 μM ATP
T1 sequence (P52333 1-1124): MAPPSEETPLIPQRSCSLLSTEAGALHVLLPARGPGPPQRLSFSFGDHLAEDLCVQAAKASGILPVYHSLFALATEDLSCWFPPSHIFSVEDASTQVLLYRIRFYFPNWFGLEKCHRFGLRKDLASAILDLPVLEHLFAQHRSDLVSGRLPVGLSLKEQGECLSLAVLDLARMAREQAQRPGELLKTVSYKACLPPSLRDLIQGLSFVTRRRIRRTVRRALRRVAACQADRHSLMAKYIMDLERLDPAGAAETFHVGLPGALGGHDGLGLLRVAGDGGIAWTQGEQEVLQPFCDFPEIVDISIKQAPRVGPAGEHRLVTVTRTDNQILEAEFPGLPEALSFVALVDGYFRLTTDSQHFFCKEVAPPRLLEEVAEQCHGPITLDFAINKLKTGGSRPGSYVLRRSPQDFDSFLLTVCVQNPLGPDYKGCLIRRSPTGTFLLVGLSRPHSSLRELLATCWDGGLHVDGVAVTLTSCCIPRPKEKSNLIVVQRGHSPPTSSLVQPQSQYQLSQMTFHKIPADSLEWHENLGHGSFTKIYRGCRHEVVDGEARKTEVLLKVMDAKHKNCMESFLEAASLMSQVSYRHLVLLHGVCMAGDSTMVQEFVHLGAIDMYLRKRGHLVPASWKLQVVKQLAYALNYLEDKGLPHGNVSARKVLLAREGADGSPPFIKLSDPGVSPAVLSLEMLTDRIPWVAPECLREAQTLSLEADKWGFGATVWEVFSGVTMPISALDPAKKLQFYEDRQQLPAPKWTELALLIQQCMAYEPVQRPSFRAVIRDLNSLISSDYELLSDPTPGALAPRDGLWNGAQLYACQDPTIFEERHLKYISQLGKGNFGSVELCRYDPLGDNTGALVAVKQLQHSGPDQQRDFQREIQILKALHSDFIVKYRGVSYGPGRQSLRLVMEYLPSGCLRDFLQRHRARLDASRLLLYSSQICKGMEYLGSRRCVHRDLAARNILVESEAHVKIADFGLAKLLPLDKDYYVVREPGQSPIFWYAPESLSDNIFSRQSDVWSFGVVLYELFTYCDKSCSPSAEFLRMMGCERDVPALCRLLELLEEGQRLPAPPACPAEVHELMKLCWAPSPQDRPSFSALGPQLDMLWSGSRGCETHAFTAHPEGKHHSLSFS
Description: as §2, §3, §4

SYK = SYK (Homo sapiens, UniProt P43405); assay: as above; type: biochemical; details: 2 μM ATP
Description: as §2, §3, §4

[3] = Toxicity test of single oral gavage administration in Beagle dogs; type: in vivo; details: administered twice within 24 hours
Description: as §1

Chain of JAK2 (O60674 whole entry, species assumed): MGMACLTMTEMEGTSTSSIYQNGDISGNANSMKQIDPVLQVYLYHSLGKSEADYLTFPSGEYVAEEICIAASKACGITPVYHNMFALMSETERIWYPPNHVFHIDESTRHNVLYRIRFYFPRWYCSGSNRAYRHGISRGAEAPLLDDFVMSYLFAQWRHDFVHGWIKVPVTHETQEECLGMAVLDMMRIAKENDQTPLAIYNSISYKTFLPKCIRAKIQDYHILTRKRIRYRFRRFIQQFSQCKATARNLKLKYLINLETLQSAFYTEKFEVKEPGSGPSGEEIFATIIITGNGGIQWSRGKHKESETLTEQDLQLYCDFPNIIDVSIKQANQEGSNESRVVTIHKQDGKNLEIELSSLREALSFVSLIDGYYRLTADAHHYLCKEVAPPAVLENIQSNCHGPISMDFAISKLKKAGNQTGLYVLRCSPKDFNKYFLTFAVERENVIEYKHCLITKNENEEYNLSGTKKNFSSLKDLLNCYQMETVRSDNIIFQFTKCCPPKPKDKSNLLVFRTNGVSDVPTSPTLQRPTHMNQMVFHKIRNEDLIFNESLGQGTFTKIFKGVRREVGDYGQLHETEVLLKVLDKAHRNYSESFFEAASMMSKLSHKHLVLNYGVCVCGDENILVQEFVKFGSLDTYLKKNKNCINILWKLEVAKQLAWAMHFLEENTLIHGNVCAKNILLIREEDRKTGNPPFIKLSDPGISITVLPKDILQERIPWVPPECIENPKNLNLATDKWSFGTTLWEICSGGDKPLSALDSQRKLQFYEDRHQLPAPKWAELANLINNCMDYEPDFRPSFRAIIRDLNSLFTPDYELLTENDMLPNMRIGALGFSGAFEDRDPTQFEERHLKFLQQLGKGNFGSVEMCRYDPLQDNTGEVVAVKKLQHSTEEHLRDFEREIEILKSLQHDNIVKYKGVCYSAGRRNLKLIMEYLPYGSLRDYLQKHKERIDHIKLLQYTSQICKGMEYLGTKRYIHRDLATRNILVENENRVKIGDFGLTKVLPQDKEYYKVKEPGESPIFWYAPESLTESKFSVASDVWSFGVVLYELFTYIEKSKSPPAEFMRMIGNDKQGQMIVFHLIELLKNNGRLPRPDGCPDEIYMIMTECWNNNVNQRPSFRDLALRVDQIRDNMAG
Chain of TYK2 (P29597 whole entry, species assumed): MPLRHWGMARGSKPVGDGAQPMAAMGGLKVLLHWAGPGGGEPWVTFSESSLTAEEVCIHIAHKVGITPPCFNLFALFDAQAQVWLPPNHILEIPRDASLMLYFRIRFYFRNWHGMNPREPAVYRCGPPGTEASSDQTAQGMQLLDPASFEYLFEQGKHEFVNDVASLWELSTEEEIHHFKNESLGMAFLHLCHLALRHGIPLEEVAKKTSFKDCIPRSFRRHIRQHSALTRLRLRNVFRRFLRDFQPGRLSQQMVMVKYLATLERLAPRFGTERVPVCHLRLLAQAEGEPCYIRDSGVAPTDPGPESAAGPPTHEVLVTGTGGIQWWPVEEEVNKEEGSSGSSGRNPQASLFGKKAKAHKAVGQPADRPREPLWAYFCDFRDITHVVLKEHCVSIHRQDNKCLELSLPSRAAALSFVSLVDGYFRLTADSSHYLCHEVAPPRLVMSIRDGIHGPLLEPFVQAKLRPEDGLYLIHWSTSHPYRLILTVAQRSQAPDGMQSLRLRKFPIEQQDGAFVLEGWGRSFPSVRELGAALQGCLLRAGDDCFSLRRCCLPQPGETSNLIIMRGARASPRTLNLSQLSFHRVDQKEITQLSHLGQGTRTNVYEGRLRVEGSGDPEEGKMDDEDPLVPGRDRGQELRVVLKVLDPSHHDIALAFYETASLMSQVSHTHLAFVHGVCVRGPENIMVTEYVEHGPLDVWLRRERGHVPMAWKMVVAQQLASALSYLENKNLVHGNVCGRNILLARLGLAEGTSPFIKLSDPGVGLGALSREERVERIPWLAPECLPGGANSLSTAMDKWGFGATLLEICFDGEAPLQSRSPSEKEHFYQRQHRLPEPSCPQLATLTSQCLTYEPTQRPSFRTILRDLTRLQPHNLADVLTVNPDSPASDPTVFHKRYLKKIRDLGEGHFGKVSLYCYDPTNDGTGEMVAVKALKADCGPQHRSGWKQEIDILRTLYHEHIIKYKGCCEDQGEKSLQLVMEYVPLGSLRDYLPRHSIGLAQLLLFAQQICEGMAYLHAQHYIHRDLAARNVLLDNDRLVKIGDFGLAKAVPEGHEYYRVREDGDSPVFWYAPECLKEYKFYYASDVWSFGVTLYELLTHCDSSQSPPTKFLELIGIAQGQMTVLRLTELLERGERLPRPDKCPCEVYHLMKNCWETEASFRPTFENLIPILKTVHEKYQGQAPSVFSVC
Chain of JAK1 (P23458 whole entry, species assumed): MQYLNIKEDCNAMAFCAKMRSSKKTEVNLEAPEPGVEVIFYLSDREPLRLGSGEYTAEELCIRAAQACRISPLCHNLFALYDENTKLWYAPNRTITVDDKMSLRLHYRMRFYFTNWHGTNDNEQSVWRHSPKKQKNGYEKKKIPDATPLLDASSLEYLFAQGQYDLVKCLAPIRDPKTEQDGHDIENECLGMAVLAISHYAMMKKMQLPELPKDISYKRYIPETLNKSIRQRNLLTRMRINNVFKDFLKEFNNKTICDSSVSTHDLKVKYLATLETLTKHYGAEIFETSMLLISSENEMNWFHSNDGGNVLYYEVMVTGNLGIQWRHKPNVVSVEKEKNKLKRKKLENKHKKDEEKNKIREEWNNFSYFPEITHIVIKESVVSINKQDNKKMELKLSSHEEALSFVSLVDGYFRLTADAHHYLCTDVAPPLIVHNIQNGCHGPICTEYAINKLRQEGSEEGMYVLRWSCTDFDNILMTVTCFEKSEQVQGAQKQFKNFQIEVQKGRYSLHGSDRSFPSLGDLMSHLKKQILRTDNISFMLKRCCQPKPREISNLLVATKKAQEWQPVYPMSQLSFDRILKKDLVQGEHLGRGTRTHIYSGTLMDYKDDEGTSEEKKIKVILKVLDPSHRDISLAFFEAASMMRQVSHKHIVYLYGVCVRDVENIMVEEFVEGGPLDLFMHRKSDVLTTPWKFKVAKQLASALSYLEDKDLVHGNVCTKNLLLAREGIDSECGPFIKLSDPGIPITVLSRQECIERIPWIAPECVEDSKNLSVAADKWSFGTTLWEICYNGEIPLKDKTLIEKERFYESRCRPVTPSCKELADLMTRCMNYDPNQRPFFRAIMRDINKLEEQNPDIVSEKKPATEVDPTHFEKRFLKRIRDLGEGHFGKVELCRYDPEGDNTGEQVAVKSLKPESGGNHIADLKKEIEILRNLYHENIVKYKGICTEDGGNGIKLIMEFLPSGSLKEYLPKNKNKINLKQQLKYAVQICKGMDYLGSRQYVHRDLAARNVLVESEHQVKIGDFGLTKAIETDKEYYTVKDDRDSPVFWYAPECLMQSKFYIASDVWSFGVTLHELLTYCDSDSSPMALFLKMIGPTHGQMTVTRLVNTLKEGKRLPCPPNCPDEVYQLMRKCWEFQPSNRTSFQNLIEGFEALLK

## NC(=O)c1cnc(Nc2ccc3c(c2)OC[C@H]2CN(S(=O)(=O)C4CC4)CCN32)nc1NC1CC1 [Compound (I), (R)-4-(cyclopropylamino)-2-((3-(cyclopropylsulfonyl)-1,2,3,4,4a,5-hexahydrobenzo[b]pyrazolo[1,2-d][1,4]oxazin-8-yl)amino)pyrimidine-5-arboxamide]
[1]; Beagle dogs, NOAEL 28-day test vs rat effective dose
  Safety window, dose method: 3 fold
[1]; Beagle dogs, NOAEL 28-day test vs rat effective dose exposure
  Safety window, exposure method: 1 fold
[1]; beagle, dog, in vivo, 28 days
  Safety window of human equivalent dose of NOAEL relative to the human initial dose: 14 fold
[1]; beagle, dog, in vivo, po
  NOAEL at 28 days: 6 mg/kg/day
[1]; dog, in vivo, po
  NOAEL of repeated administration for 28 days: 3 mg/kg/time
[1]; female, beagle, dog, in vivo, po, dogs ♀
  AUC: 3930 ng·h/mL
[1]; male, beagle, dog, in vivo, po, dogs ♂
  AUC: 3300 ng·h/mL
[1]; of NOAEL for 28-day test of dogs
  Human equivalent dose (based on 60 kg body weight): 210 mg
In vivo
  NOAEL: 2000 mg/kg
[2]; SD rats, both sexes, NOAEL 28-day test vs rat effective dose exposure
  Safety window, according to the exposure: 8-13 fold
[2]; SD rats, NOAEL 28-day test vs rat effective dose
  Safety window, dose method: 3 fold
[2]; SD, rat, in vivo, 28 days
  Safety window of human equivalent dose of NOAEL relative to the human initial dose: 16 fold
[2]; SD, rat, in vivo, po
  NOAEL at 28 days: 20 mg/kg/day
[2]; female, SD, rat, in vivo, po, rats ♀
  AUC: 58100 ng·h/mL
[2]; male, SD, rat, in vivo, po, rats ♂
  AUC: 33900 ng·h/mL
[2]; of NOAEL for 28-day test of rats
  Human equivalent dose (based on 60 kg body weight): 242 mg
[2]; rat, in vivo, po
  NOAEL of repeated administration for 28 days: 10 mg/kg/time
[2]; rats ♀
  Safety window, exposure method: ♀13 fold
[2]; rats ♂
  Safety window, exposure method: ♂8 fold
JAK2
  IC50: 3.92 nM
JAK1
  IC50: 20 nM
TYK2
  IC50: 0.82 nM
JAK3
  IC50: 1.43 nM
SYK
  IC50: 7.25 nM
[3]
  MTD: 500 mg/kg/time
[3]; dog, in vivo
  MTD at 24 h: 1000 mg/kg/day
